# Laboratory results published in US8450317B2, “CXCR3 receptor antagonists” (Boehringer Ingelheim International GmbH, priority 2009, dated 2013).
# Target: CXCR3 (Macaca fascicularis, UniProt A0A2K5UV19)
# Experiment: functional cellular assay measuring calcium flux in CXCR3 transfected cells (block of CXCR3/IP-10 interaction)
# Assay type: cell-based, Cyno
# Details: IP-10 induced intracellular calcium flux; Cyno-CHO cells stably expressing recombinant CXCR3 and G-alpha-16; IP-10 at EC80; read-out: IC50
# Method: Compounds are assessed for the ability to block the interaction of CXCR3 and IP-10 in a functional cellular assay measuring calcium flux in CXCR3 transfected cells.
# Cyno-CHO cells, stably expressing recombinant CXCR3 and G-alpha-16 are grown in F12 medium (Mediatech #45000-360) supplemented with 10% (V/V) FBS (Mediatech #35-01500), 1% Geneticin (Invitrogen #10131-027) and 0.2% Zeocin (Invitrogen #R250-05). The cells are spun down and re-suspended in growth media to a concentration of […]. 25 microL of cell suspension is added to each well of a BD-384-well TC treated plate, providing 12,000 cells/well. The plate is incubated at 37° C./5% CO2 overnight. On the day of the assay, the plates are removed, the media is flicked out and 25 microL of Ca-4 dye in assay buffer (HBSS, 10 mM HEPES ph 7.4), containing 2 mM probenacid is added to each well. The cell assay plates are then incubated at 37° C./5% CO2 for one hour.
# Test compounds are dissolved in DMSO and diluted to 1.045 mM in DMSO. Just prior to assay, 2.75 microL of appropriately diluted test compound are added to each well of a 384 well plate containing 45 microL of HBSS buffer. After mixing, 5 microL of diluted compound are added to each well of the cell assay plate for a final assay concentration of 10 microM. The plate is incubated at room temperature for 15 min. 10 microL of IP-10 stock solution in HBSS (4× EC80 concentration) are added to each well of the cell assay plate except those cells reserved as blank wells containing buffer only. Intracellular calcium flux is recorded on the HAMAMTSU FDSS6000, using excitation at 480 nm and emission at 540 nm. Data are analyzed using Activity Base software.
# In general, the preferred potency range (IC50) of compounds in the above assay is between 1 nM to 3 μM, and the most preferred potency range is 1 nM to 200 nM.
# Chain of CXCR3 (A0A2K5UV19 entry or part of it): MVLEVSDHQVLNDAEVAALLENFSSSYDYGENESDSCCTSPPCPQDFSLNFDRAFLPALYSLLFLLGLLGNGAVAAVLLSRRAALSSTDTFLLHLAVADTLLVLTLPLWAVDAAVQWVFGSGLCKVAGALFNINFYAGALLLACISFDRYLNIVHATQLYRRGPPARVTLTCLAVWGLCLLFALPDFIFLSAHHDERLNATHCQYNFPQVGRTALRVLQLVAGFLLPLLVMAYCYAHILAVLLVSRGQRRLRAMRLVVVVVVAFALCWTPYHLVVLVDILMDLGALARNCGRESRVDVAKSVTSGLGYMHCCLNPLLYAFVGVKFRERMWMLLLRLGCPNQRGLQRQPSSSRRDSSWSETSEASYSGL
row,SMILES,IC50
1,"Cc1cc(C)n(CC(=O)N2CCN(c3ccc(F)cc3C(=O)Nc3nc4c(s3)CN(C)CC4)C[C@H]2C)n1 [2-{(3R)-4-[(3,5-dimethyl-1H-pyrazol-1-yl)acetyl]-3-methylpiperazin-1-yl}-5-fluoro-N-(5-methyl-4,5,6,7-tetrahydro[1,3]thiazolo[5,4-c]pyridin-2-yl)benzamide]",15 nM
2,"Cc1cc(C)n(CC(=O)N2CCN(c3ccc(F)cc3-c3cnc(N4CCCC4)nc3)CC2)n1 [2-(3,5-dimethyl-1H-pyrazol-1-yl)-1-(4-{4-fluoro-2-[2-(pyrrolidin-1-yl)pyrimidin-5-yl]phenyl}piperazin-1-yl)ethanone]",16 nM
3,"CSc1ncc(-c2cc(C#N)ccc2N2CCN(C(=O)Cn3ccc4cccnc43)CC2)cn1 [3-(2-Methylsulfanyl-pyrimidin-5-yl)-4-[4-(2-pyrrolo[2,3-b]pyridin-1-yl-acetyl)-piperazin-1-yl]-benzonitrile]",4 nM
4,"COc1cc(NC(=O)c2cc(F)ccc2N2CCN(C(=O)Cn3c(=O)[nH]c4ccccc43)[C@@H](C)C2)ccn1 [5-fluoro-N-(2-methoxypyridin-4-yl)-2-{(3S)-3-methyl-4-[(2-oxo-2,3-dihydro-1H-benzimidazol-1-yl)acetyl]piperazin-1-yl}benzamide]",9 nM
5,"COc1ncc(-c2ccccc2N2CCN(C(=O)Cn3ccc4cccnc43)CC2)cn1 [1-{4-[2-(2-Methoxy-pyrimidin-5-yl)-phenyl]-piperazin-1-yl}-2-pyrrolo[2,3-b]pyridin-1-yl-ethanone]",6 nM
6,"COC[C@@H]1CCCN1c1ncc(-c2ccccc2N2CCN(C(=O)Cn3nc(C)cc3C)CC2)cn1 [2-(3,5-Dimethyl-pyrazol-1-yl)-1-(4-{2-[2-((S)-2-methoxymethyl-pyrrolidin-1-yl)-pyrimidin-5-yl]-phenyl}-piperazin-1-yl)-ethanone]",12 nM
7,"COc1cc(NC(=O)c2cc(F)ccc2N2CCN(C(=O)Cn3cnc4cccnc43)[C@@H](C)C2)ccn1 [5-fluoro-2-[(3S)-4-(3H-imidazo[4,5-b]pyridin-3-ylacetyl)-3-methylpiperazin-1-yl]-N-(2-methoxypyridin-4-yl)benzamide]",11 nM
8,"CS(=O)(=O)c1ncc(-c2cc(C(F)(F)F)ccc2N2CCN(C(=O)Cn3ccc4cccnc43)CC2)cn1 [1-{4-[2-(2-Methanesulfonyl-pyrimidin-5-yl)-4-trifluoromethyl-phenyl]-piperazin-1-yl}-2-pyrrolo[2,3-b]pyridin-1-yl-ethanone]",13 nM
9,"CC1CN(c2ccc(C(F)(F)F)cc2-c2cnc(N3CCC(S(C)(=O)=O)CC3)nc2)CCN1C(=O)Cn1cnc2cccnc21 (centres unmarked) [2-(3H-imidazo[4,5-b]pyridin-3-yl)-1-{2-methyl-4-[2-{2-[4-(methylsulfonyl)piperidin-1-yl]pyrimidin-5-yl}-4-(trifluoromethyl)phenyl]piperazin-1-yl}ethanone]",7 nM
10,"Cc1cc(C)n(CC(=O)N2CCN(c3ccccc3-c3cnc(N4CCC(C(C)(C)O)CC4)nc3)CC2)n1 [2-(3,5-Dimethyl-pyrazol-1-yl)-1-[4-(2-{2-[4-(1-hydroxy-1-methyl-ethyl)-piperidin-1-yl]-pyrimidin-5-yl}-phenyl)-piperazin-1-yl]-ethanone]",12 nM
11,COc1ncc(-c2ccccc2N2CCN(C(=O)Cn3ccc4ccccc43)CC2)cn1 [2-Indol-1-yl-1-{4-[2-(2-methoxy-pyrimidin-5-yl)-phenyl]-piperazin-1-yl}-ethanone],44 nM
12,"CN1CCN(c2ncc(-c3cc(F)ccc3N3CCN(C(=O)Cn4c(=O)[nH]c5ccccc54)CC3)cn2)CC1 [1-[2-(4-{4-fluoro-2-[2-(4-methylpiperazin-1-yl)pyrimidin-5-yl]phenyl}piperazin-1-yl)-2-oxoethyl]-1,3-dihydro-2H-benzimidazol-2-one]",14 nM
13,"COc1cc(NC(=O)c2cc(F)ccc2N2CCN(C(=O)Cn3nc(C)cc3C)[C@H](C)C2)ccn1 [2-{(3R)-4-[(3,5-dimethyl-1H-pyrazol-1-yl)acetyl]-3-methylpiperazin-1-yl}-5-fluoro-N-(2-methoxypyridin-4-yl)benzamide]",8 nM
14,O=C(CN1CCCCC1=O)N1CCN(c2ccc(F)cc2-c2cnc(N3CCC(O)CC3)nc2)CC1 [1-[2-(4-{4-fluoro-2-[2-(4-hydroxypiperidin-1-yl)pyrimidin-5-yl]phenyl}piperazin-1-yl)-2-oxoethyl]piperidin-2-one],16 nM
15,"CC1CN(c2ccc(C(F)(F)F)cc2-c2cnc(S(C)(=O)=O)nc2)CCN1C(=O)Cn1cnc2cccnc21 (centres unmarked) [2-(3H-imidazo[4,5-b]pyridin-3-yl)-1-(2-methyl-4-{2-[2-(methylsulfonyl)pyrimidin-5-yl]-4-(trifluoromethyl)phenyl}piperazin-1-yl)ethanone]",189 nM
16,"CS(=O)(=O)C1CCN(c2ncc(-c3cc(F)ccc3N3CCN(C(=O)CN4Cc5ccccc5C4=O)CC3)cn2)CC1 [2-{2-[4-(4-fluoro-2-{2-[4-(methylsulfonyl)piperidin-1-yl]pyrimidin-5-yl}phenyl)piperazin-1-yl]-2-oxoethyl}-2,3-dihydro-1H-isoindol-1-one]",9 nM
17,"COc1ncc(-c2cc(C#N)ccc2N2CCN(C(=O)Cn3nc(C)cc3C)CC2)cn1 [4-{4-[2-(3,5-Dimethyl-pyrazol-1-yl)-acetyl]-piperazin-1-yl}-3-(2-methoxy-pyrimidin-5-yl)-benzonitrile]",150 nM
18,"Cc1cc(C)n(CC(=O)N2CCN(c3ccc(C(F)(F)F)cc3-c3cnc(N4CCOCC4)nc3)CC2)n1 [2-(3,5-Dimethyl-pyrazol-1-yl)-1-{4-[2-(2-morpholin-4-yl-pyrimidin-5-yl)-4-trifluoromethyl-phenyl]-piperazin-1-yl}-ethanone]",8 nM
19,"CNc1ncc(-c2cc(C(F)(F)F)ccc2N2CCN(C(=O)Cn3ccc4cccnc43)CC2)cn1 [1-{4-[2-(2-Methylamino-pyrimidin-5-yl)-4-trifluoromethyl-phenyl]-piperazin-1-yl}-2-pyrrolo[2,3-b]pyridin-1-yl-ethanone]",5 nM
20,"O=C(Cn1ccc2cccnc21)N1CCN(c2ccccc2-c2ccc(Cl)nc2)CC1 [1-{4-[2-(6-Chloro-pyridin-3-yl)-phenyl]-piperazin-1-yl}-2-pyrrolo[2,3-b]pyridin-1-yl-ethanone]",31 nM
21,"Cc1cc(C)n(CC(=O)N2CCN(c3ccccc3-c3cnc(N4CCC(S(C)(=O)=O)CC4)nc3)CC2)n1 [2-(3,5-Dimethyl-pyrazol-1-yl)-1-(4-{2-[2-(4-methanesulfonyl-piperidin-1-yl)-pyrimidin-5-yl]-phenyl}-piperazin-1-yl)-ethanone]",6 nM
22,"CC1CN(c2ccc(F)cc2-c2cnc(S(C)(=O)=O)nc2)CCN1C(=O)Cn1ccc2cccnc21 (centres unmarked) [1-(4-{4-fluoro-2-[2-(methylsulfonyl)pyrimidin-5-yl]phenyl}-2-methylpiperazin-1-yl)-2-(1H-pyrrolo[2,3-b]pyridin-1-yl)ethanone]",48 nM
23,"N#Cc1ncc(-c2ccccc2N2CCN(C(=O)Cn3ccc4cccnc43)CC2)cn1 [5-{2-[4-(2-Pyrrolo[2,3-b]pyridin-1-yl-acetyl)-piperazin-1-yl]-phenyl}-pyrimidine-2-carbonitrile]",13 nM
24,"CC1CN(c2ccccc2-c2cnc(S(C)(=O)=O)nc2)CCN1C(=O)Cn1ccc2cccnc21 (centres unmarked) [1-(2-methyl-4-{2-[2-(methylsulfonyl)pyrimidin-5-yl]phenyl}piperazin-1-yl)-2-(1H-pyrrolo[2,3-b]pyridin-1-yl)ethanone]",27 nM
25,"N#Cc1ccc(-c2ccccc2N2CCN(C(=O)Cn3ccc4cccnc43)CC2)cn1 [5-{2-[4-(2-Pyrrolo[2,3-b]pyridin-1-yl-acetyl)-piperazin-1-yl]-phenyl}-pyridine-2-carbonitrile]",5 nM
26,"CS(=O)(=O)c1ncc(-c2cc(F)ccc2N2CCN(C(=O)Cn3cnc4cccnc43)CC2)cn1 [1-(4-{4-fluoro-2-[2-(methylsulfonyl)pyrimidin-5-yl]phenyl}piperazin-1-yl)-2-(3H-imidazo[4,5-b]pyridin-3-yl)ethanone]",488 nM
27,"COc1ncc(-c2ccccc2N2CCN(C(=O)Cn3ccc4ccnc(Cl)c43)CC2)cn1 [2-(7-Chloro-pyrrolo[2,3-c]pyridin-1-yl)-1-{4-[2-(2-methoxy-pyrimidin-5-yl)-phenyl]-piperazin-1-yl}-ethanone]",16 nM
28,"Cc1cc(C)n(CC(=O)N2CCN(c3ccccc3-c3cnc(C)nc3)CC2)n1 [2-(3,5-Dimethyl-pyrazol-1-yl)-1-{4-[2-(2-methyl-pyrimidin-5-yl)-phenyl]-piperazin-1-yl}-ethanone]",67 nM
29,"C[C@@H]1CN(c2ncc(-c3ccccc3N3CCN(C(=O)Cn4ccc5cccnc54)CC3)cn2)C[C@H](C)O1 [1-(4-{2-[2-((2R,6S)-2,6-Dimethyl-morpholin-4-yl)-pyrimidin-5-yl]-phenyl}-piperazin-1-yl)-2-pyrrolo[2,3-b]pyridin-1-yl-ethanone]",10 nM
